According to patent US20200397894A1, “COMPOSITIONS AND METHODS FOR TREATING CANCER” (University of Virginia Patent Foundation, priority 2016, published 2020):
“And” between values parts separate entries of the source, which are not always exact repeats. Equal values may be shown once.

Key:
HNSCC cells = test: Colony formation and CYQUANT cell viability assays; assay type: cell-based; conditions: Homo sapiens
Method: HNSCC cells were transfected with si-RNA (48 hours prior to first count) or treated with pevonedistat (24 hours prior to first count). 8×10^5 cells were seeded in 60 mm plates and cell proliferation was determined by staining with trypan blue and counting by COUNTESS™ Automated Cell Counter (INVITROGEN™, Carlsbad, Calif., United States of America). Depending on the cell growth rate, cell counts were recorded either every 24 or 48 hours, and growth curves were established.
The effect of pevonedistat treatment or transient silencing of CDT2, geminin, or EMI1 on cell proliferation or on radiation sensitivity was tested using clonogenic survival assays. Cells were transfected with the appropriate si-RNA 48 hours prior to seeding. Cells were then counted using COUNTESS™ Automated Cell Counter (INVITROGEN™, Carlsbad, Calif., United States of America) and were seeded at 15,000 cells/plate in 60 mm dishes. Cells were irradiated 24 hours after seeding with various doses and were cultured for 7-10 days. […] QUANTITY ONE® software (BioRad Laboratories, Inc., Hercules, Calif., United States of America) was used to quantify the number of colonies and survival curves were established based on the linear quadratic model, using the formula S=e^−αD-βD2; where S represents the surviving fraction and D the dose of irradiation. […]

[1] = system: non-malignant melanocytes PIG3V; test: Rereplication by FACS in non-malignant melanocytes; assay type: cell-based, human; conditions: 48 hours following treatment
Method: The effects of pevonedistat, vemurafenib, and/or silencing of various cell cycle-associated proteins by siRNA on cell cycle distribution and rereplication were assessed by propidium iodide staining and flow cytometry of asynchronous melanoma cultures. Synchronization of cells was not employed to avoid bias and to be able to measure the impact of these perturbations on proliferating cancer cells. Briefly, asynchronous melanoma cell lines were treated with pevonedistat or vemurafenib, or transfected with si-CDT1, si-CDT2, si-SET8, si-p21, sigeminin, si-EMI1, or si-GL2 for a time ranging from 24 to 96 hours. Cells were washed with cold PBS, harvested, and fixed in 70% (v/v) ethanol. Cells were subsequently treated with 20 μg of DNase-free RNase and stained with propidium iodide according to instructions of the manufacturer. Samples were analyzed on a FACSCAN™ (Becton, Dickinson and Company, Franklin Lakes, N.J., United States of America) and G0-G1, S, and G2-M fractions were segmented, and apoptotic (sub-G1 DNA content) and rereplicating (>G2/M DNA content) fractions were determined using FLOWJO® (FLOWJO, LLC, Ashland, Oreg., United States of America) and ModFit (Verity Software House, Topsham, Me., United States of America) software.

Cal27 xenografts = test: HNSCC flank xenograft in nude mice; assay type: in vivo
Method: The animal studies were conducted in accordance with the guidelines established by the University of Virginia Animal Care and Use Committee (ACUC). The effect of pevonedistat on tumor growth was tested in a flank HNSCC xenograft model. 4-5 weeks old Foxn1^nu athymic female nude immunodeficient mice (20-25 g body weight; Harlan Laboratories, now Envigo, Indianapolis, Ind., United States of America) were used. Pevonedistat was prepared in 10% DMSO containing PBS and filtered before use. 5×10^6 Cal27 cells (suspended in 200 μl sterile PBS) were inoculated subcutaneously in both flanks of nude mice (8 mice per group). When the tumor size reached 100 mm^3 (10 days post-inoculation), mice were randomized and were treated with pevonedistat (20 mg/kg), or with control vehicle (DMSO), administered intraperitoneally on a regimen of 5 days on/5 days off for 2 cycles (Tardat et al., 2010). Tumors from a third group of mice were exposed to 1Gy irradiation (IR) daily, 5 days/week for 3 weeks, and a fourth group of mice received both pevonedistat and IR treatments. Tumor irradiation was performed at the University of Virginia X-Ray facility, and only the tumors on both flanks were irradiated while the rest of animal body was shielded. For combination treatment, pevonedistat was given 2 hours prior to radiation exposure with the same schedule as for the individual treatments. Tumor growth was monitored every other day using an electronic caliper, for 3 weeks post-treatment and average of tumor volumes were calculated using the formula (L×W^2)/2). The results are represented as the mean tumor volumes±s.e.m, and p<0.05 was considered significant.

Cal27 cells = test: Clonogenic survival assay for radiation sensitivity; assay type: cell-based, human; set-up: SF4: unit not given here; conditions: for SF4: S 0.1; for SER (sensitivity enhancement ratio): at 10% survival
Method: (§1) The effect of pevonedistat treatment or transient silencing of CDT2, geminin, or EMI1 on cell proliferation or on radiation sensitivity was tested using clonogenic survival assays. Cells were transfected with the appropriate si-RNA 48 hours prior to seeding. Cells were then counted using COUNTESS™ Automated Cell Counter (INVITROGEN™, Carlsbad, Calif., United States of America) and were seeded at 15,000 cells/plate in 60 mm dishes. Cells were irradiated 24 hours after seeding with various doses and were cultured for 7-10 days. Once colonies reached the appropriate size (>50 cells each), cells were washed twice with cold PBS, fixed in cold 100% methanol for 10 minutes, and stained with crystal violet (0.5%) for 10 minutes. The plates were washed, dried, and imaged using IMAGE LAB™ software (BioRad Laboratories, Inc., Hercules, Calif., United States of America). QUANTITY ONE® software (BioRad Laboratories, Inc., Hercules, Calif., United States of America) was used to quantify the number of colonies and survival curves were established based on the linear quadratic model, using the formula S=e^−αD-βD2; where S represents the surviving fraction and D the dose of irradiation. Results are represented as mean standard deviation (SD) of three independent experiments normalized to the corresponding non-irradiated plates for each group. When the effect of pevonedistat on cell radiosensitivity was tested, cells were seeded at 15,000 cells/60 mm plate and allowed to adhere for 4-6 hours. Pevonedistat was then added upon cell adherence at varying concentrations and cells were irradiated the following day. The duration of the experiment and the stopping procedure were as described above.

FaDu cells = test: as above; assay type: cell-based, human; set-up: SF4: unit not given here; conditions: for SF4: S 0.1; for SER (sensitivity enhancement ratio): at 10% survival
Method: as §1

Trl46 HNSCC cells = conditions: Trl46, 1 μM pevonedistat; cited from earlier work
[2] = Cal27, 20 nM pevonedistat 24 hours prior to irradiation
[3] = Cal27, 40 nM pevonedistat 24 hours prior to irradiation
[4] = Cal27, 60 nM pevonedistat 24 hours prior to irradiation
[5] = Cal27, 80 nM pevonedistat 24 hours prior to irradiation
[6] = 10 nM pevonedistat 24 hours prior to irradiation
[7] = 20 nM pevonedistat 24 hours prior to irradiation
[8] = 40 nM pevonedistat 24 hours prior to irradiation
[9] = 60 nM pevonedistat 24 hours prior to irradiation

For `NS(=O)(=O)OCC1CC(n2ccc3c(NC4CCc5ccccc54)ncnc32)CC1O` [pevonedistat, ((1S,2S,4R)-4-(4-((1S)-2,3-Dihydro-H-inden-1-ylamino)-7H-pyrrolo(2,3-d)pyrimidin-7-yl)-2-hydroxycyclopentyl)methyl sulphamate], the IC50 (HNSCC cells) was ~0.05 µM, the rereplication [1] was “less than 3%” and the “growth of Cal27 xenografts” value (Cal27 xenografts; 20 mg/kg IP, p=0.0211) was “significantly suppressed”. The “growth of Cal27 xenografts, combined treatment with IR” value (Cal27 xenografts; 20 mg/kg pevonedistat plus 1 Gy IR daily, p=2×10^−3 vs. control) was “more suppression than either treatment alone”, the tolerability (Cal27 xenografts; nude mice, 20 mg/kg IP, 5 days on/5 days off, two cycles) was “well tolerated” and the “effect on mouse weight” value (Cal27 xenografts; weighed once a week during the entire experiment) was “no significant effect”. The “α (linear quadratic model)” value (Cal27 cells; [2]) was 1.50 × 10^−13, the “β (linear quadratic model)” value (Cal27 cells; [2]) was 0.049 and the SF4 (Cal27 cells; Cal27, 20 nM pevonedistat) was 6.893. The “SER (sensitivity enhancement ratio)” value (Cal27 cells; Cal27, 20 nM pevonedistat) was 1.171, the “α (linear quadratic model)” value (Cal27 cells; [3]) was 0.108 and the “β (linear quadratic model)” value (Cal27 cells; [3]) was 0.052. The SF4 (Cal27 cells; Cal27, 40 nM pevonedistat) was 5.692, the “SER (sensitivity enhancement ratio)” value (Cal27 cells; Cal27, 40 nM pevonedistat) was 1.419 and the “α (linear quadratic model)” value (Cal27 cells; [4]) was 0.471. The “β (linear quadratic model)” value (Cal27 cells; [4]) was 0.009, the SF4 (Cal27 cells; Cal27, 60 nM pevonedistat) was 4.457 and the “SER (sensitivity enhancement ratio)” value (Cal27 cells; Cal27, 60 nM pevonedistat) was 1.812. For the same compound, the “α (linear quadratic model)” value (Cal27 cells; [5]) was 0.906, the “β (linear quadratic model)” value (Cal27 cells; [5]) was −0.020 and the SF4 (Cal27 cells; Cal27, 80 nM pevonedistat) was 2.702. For the same compound, the “SER (sensitivity enhancement ratio)” value (Cal27 cells; Cal27, 80 nM pevonedistat) was 2.702, the “α (linear quadratic model)” value (FaDu cells; [6]) was 0.105 and the “β (linear quadratic model)” value (FaDu cells; [6]) was 0.017. For the same compound, the SF4 (FaDu cells; 10 nM pevonedistat) was 8.979, the “SER (sensitivity enhancement ratio)” value (FaDu cells; 10 nM pevonedistat) was 1.055 and the “α (linear quadratic model)” value (FaDu cells; [7]) was 0.242. The “β (linear quadratic model)” value (FaDu cells; [7]) was 0.006, the SF4 (FaDu cells; 20 nM pevonedistat) was 7.987 and the “SER (sensitivity enhancement ratio)” value (FaDu cells; 20 nM pevonedistat) was 1.186. For the same compound, the “α (linear quadratic model)” value (FaDu cells; [8]) was 0.241, the “β (linear quadratic model)” value (FaDu cells; [8]) was 0.014 and the SF4 (FaDu cells; 40 nM pevonedistat) was 6.830. For the same compound, the “SER (sensitivity enhancement ratio)” value (FaDu cells; 40 nM pevonedistat) was 1.387, the “α (linear quadratic model)” value (FaDu cells; [9]) was 0.282 and the “β (linear quadratic model)” value (FaDu cells; [9]) was 0.013. For the same compound, the SF4 (FaDu cells; 60 nM pevonedistat) was 6.328, the “SER (sensitivity enhancement ratio)” value (FaDu cells; 60 nM pevonedistat) was 1.49 and 1.497 and the “apoptosis (% of cells)” value (Trl46 HNSCC cells) was 65%.
